Test results as given in US8685999B2, “Beta carboline sulphonylurea derivatives as EP4 receptor antagonists” (Merck Sharp & Dohme Corp., priority 2008, dated 2014).

These compounds were tested against T1, EP4 (Homo sapiens, UniProt P35408) (assay: Prostanoid receptor binding assay (radioligand displacement binding assay)). Details: column marked X when IC50 < 1; read-out: IC50 (nm) X < 1.
T1 construct: expressed in transfected cells; membranes prepared by differential centrifugation
Description: Prostanoid receptor cDNAs corresponding to full length coding sequences are subcloned into the appropriate sites of mammalian expression vectors and transfected into HEK 293(ebna) cells. HEK 293(ebna) cells expressing the individual cDNAs are grown under selection and individual colonies are isolated after 2-3 weeks of growth using the cloning ring method and subsequently expanded into clonal cell lines.
Transfected HEK 293(ebna) cells are maintained in culture, harvested and membranes are prepared by differential centrifugation, following lysis of the cells in the presence of protease inhibitors, for use in receptor binding assays. Prostanoid receptor binding assays (for DP1, DP2 (CRTH2), EP1, EP2, EP3-III, EP4, FP, IP, and TP) are performed in 10 mM MES/KOH (pH 6.0) (EPs, FP and TP) or 10 mM HEPES/KOH (pH 7.4) (DPs and IP), containing 1 mM EDTA, 2.5-30 mM divalent cation and the appropriate radio-ligand. Synthetic compounds are added in DMSO which is kept constant at 1% (v/v) in all incubations. The reaction is initiated by addition of membrane protein. Non-specific binding is determined in the presence of 10 μM of the corresponding non-radioactive prostanoid. Incubations are conducted for 60-120 min at room temperature or 30° C. and terminated by rapid filtration. Specific binding is calculated by subtracting non specific binding from total binding. The residual specific binding at each ligand concentration is calculated and expressed as a function of ligand concentration in order to construct sigmoidal concentration-response curves. The binding affinity of the compounds is determined by calculating the equilibrium inhibition constant (Ki) from the equation Ki=InPt/1+[radio-ligand]/Kd where Kd is the equilibrium dissociation constant for the radio-ligand:receptor interaction and InPt is the inflection point of the dose-response curves.
Abramovitz, M. et al., Biochem, Biophys. Acta, 2000, 1483, pp. 285.

T1 sequence (P35408 whole entry): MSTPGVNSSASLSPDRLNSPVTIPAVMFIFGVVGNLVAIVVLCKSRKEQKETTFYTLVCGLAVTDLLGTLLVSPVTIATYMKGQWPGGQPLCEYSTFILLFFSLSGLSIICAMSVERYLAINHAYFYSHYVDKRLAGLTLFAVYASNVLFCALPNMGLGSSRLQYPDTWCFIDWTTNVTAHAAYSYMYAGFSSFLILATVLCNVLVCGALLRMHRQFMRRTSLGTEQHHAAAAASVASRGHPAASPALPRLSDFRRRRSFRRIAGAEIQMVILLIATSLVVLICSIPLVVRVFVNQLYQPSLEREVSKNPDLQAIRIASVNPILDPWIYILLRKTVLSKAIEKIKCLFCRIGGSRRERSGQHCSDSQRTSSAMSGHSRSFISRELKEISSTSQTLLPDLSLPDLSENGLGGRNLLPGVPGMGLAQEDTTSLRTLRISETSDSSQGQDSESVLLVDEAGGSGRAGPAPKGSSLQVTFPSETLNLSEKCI

Compound	IC50 [nM]
CN1CCc2c(n(-c3ccc(CC4(NC(=O)NS(=O)(=O)c5ccc(Cl)cc5)CC4)cc3)c3ccc(-c4cccnc4)cc23)C1=O [Example 1-24, 4-chloro-N-[({1-[4-(2-methyl-1-oxo-6-pyridin-3-yl-1,2,3,4-tetrahydro-9H-beta-carbolin-9-yl)benzyl]cyclopropyl}amino)carbonyl]benzenesulfonamide]	< 1
CN1CCc2c(n(-c3ccc(CC4(NC(=O)NS(=O)(=O)c5ccc(Cl)cc5)CC4)cc3)c3ccc(-c4ccsc4)cc23)C1=O [Example 1-25, 4-chloro-N-{[(1-{4-[2-methyl-1-oxo-6-(3-thienyl)-1,2,3,4-tetrahydro-9H-beta-carbolin-9-yl]benzyl}cyclopropyl)amino]carbonyl}benzenesulfonamide]	< 1
CN1CCc2c(n(-c3ccc(CC4(NC(=O)NS(=O)(=O)c5ccc(Cl)cc5)CC4)cc3)c3ccc(-c4ccccn4)cc23)C1=O [Example 1-26, 4-chloro-N-[({1-[4-(2-methyl-1-oxo-6-pyridin-2-yl-1,2,3,4-tetrahydro-9H-beta-carbolin-9-yl)benzyl]cyclopropyl}amino)carbonyl]benzenesulfonamide]	< 1
Cc1ccccc1-c1ccc2c(c1)c1c(n2-c2ccc(CC3(NC(=O)NS(=O)(=O)c4ccc(Cl)cc4)CC3)cc2)C(=O)N(C)CC1 [Example 1-27, 4-chloro-N-{[(1-{4-[2-methyl-6-(2-methylphenyl)-1-oxo-1,2,3,4-tetrahydro-9H-beta-carbolin-9-yl]benzyl}cyclopropyl)amino]carbonyl}benzenesulfonamide]	< 1
Cc1cc(C)c2c3c(n(-c4ccc(CC5(NC(=O)NS(=O)(=O)c6ccc(Cl)cc6)CC5)cc4)c2c1)C(=O)N(C)CC3 [Example 1-28, 4-chloro-N-[({1-[4-(2,5,7-trimethyl-1-oxo-1,2,3,4-tetrahydro-9H-beta-carbolin-9-yl)benzyl]cyclopropyl}amino)carbonyl]benzenesulfonamide]	< 1
CN1CCc2c(n(-c3ccc(CC4(NC(=O)NS(=O)(=O)c5c(Cl)cccc5Cl)CC4)cc3)c3ccc(-c4ccccc4)cc23)C1=O [Example 1-29, 2,6-dichloro-N-[({1-[4-(2-methyl-1-oxo-6-phenyl-1,2,3,4-tetrahydro-9H-beta-carbolin-9-yl)benzyl]cyclopropyl}amino)carbonyl]benzenesulfonamide]	< 1
COc1cccc(OC)c1S(=O)(=O)NC(=O)NC1(Cc2ccc(-n3c4c(c5cc(-c6ccccc6)ccc53)CCN(C)C4=O)cc2)CC1 [Example 1-30, 2,6-dimethoxy-N-[({1-[4-(2-methyl-1-oxo-6-phenyl-1,2,3,4-tetrahydro-9H-beta-carbolin-9-yl)benzyl]cyclopropyl}amino)carbonyl]benzenesulfonamide]	< 1
CN1CCc2c(n(-c3ccc(CCNC(=O)NS(=O)(=O)c4ccc(Cl)cc4)cc3)c3ccc(S(C)(=O)=O)cc23)C1=O [Example 1-31, 4-chloro-N-{[(2-{4-[2-methyl-6-(methylsulfonyl)-1-oxo-1,2,3,4-tetrahydro-9H-beta-carbolin-9-yl]phenyl}ethyl)amino]carbonyl}benzenesulfonamide]	< 1
CN1CCc2c(n(-c3ccc(CC4(NC(=O)NS(=O)(=O)c5ccc(Cl)cc5)CC4)cc3)c3ccc(S(C)(=O)=O)cc23)C1=O [Example 1-34, 4-chloro-N-{[(1-{4-[2-methyl-6-(methylsulfonyl)-1-oxo-1,2,3,4-tetrahydro-9H-beta-carbolin-9-yl]benzyl}cyclopropyl)amino]carbonyl}benzenesulfonamide]	< 1
CN1CCc2c(n(-c3ccc(CCNC(=O)NS(=O)(=O)c4ccc(Cl)cc4)cc3)c3ccc(-c4ccc(S(C)(=O)=O)cc4)cc23)C1=O [Example 1-35, 4-chloro-N-({[2-(4-{2-methyl-6-[4-(methylsulfonyl)phenyl]-1-oxo-1,2,3,4-tetrahydro-9H-beta-carbolin-9-yl}phenyl)ethyl]amino}carbonyl)benzenesulfonamide]	< 1
CN1CCc2c(n(-c3ccc(CCNC(=O)NS(=O)(=O)c4ccc(Cl)cc4)cc3)c3ccc(-c4cccc(S(C)(=O)=O)c4)cc23)C1=O [Example 1-36, 4-chloro-N-({[2-(4-{2-methyl-6-[3-(methylsulfonyl)phenyl]-1-oxo-1,2,3,4-tetrahydro-9H-beta-carbolin-9-yl}phenyl)ethyl]amino}carbonyl)benzenesulfonamide]	< 1
CN1CCc2c(n(-c3ccc(CC4(NC(=O)NS(=O)(=O)c5ccc(Cl)cc5)CC4)cc3)c3ccc(S(=O)(=O)c4ccccc4)cc23)C1=O [Example 1-37, 4-chloro-N-{[(1-{4-[2-methyl-1-oxo-6-(phenylsulfonyl)-1,2,3,4-tetrahydro-9H-beta-carbolin-9-yl]benzyl}cyclopropyl)amino]carbonyl}benzenesulfonamide]	< 1

Further lines, results first:

IC50 [nM]	Compound
< 1	CN1CCc2c(n(-c3ccc(CC4(NC(=O)NS(=O)(=O)c5ccc(Cl)cc5)CC4)cc3)c3ccc(C4CC4)cc23)C1=O [Example 2-1, 4-chloro-N-[({1-[4-(6-cyclopropyl-2-methyl-1-oxo-1,2,3,4-tetrahydro-9H-beta-carbolin-9-yl)benzyl]cyclopropyl}amino)carbonyl]benzenesulfonamide]
< 1	CN1CCc2c(n(-c3ccc(CCNC(=O)NS(=O)(=O)c4ccc(Cl)cc4)cc3)c3ccc(C4CC4)cc23)C1=O [Example 2-2, 4-chloro-N-[({2-[4-(6-cyclopropyl-2-methyl-1-oxo-1,2,3,4-tetrahydro-9H-beta-carbolin-9-yl)phenyl]ethyl}amino)carbonyl]benzenesulfonamide]
< 1	CN1CCc2c(n(-c3ccc(CCNC(=O)NS(=O)(=O)c4ccc(Cl)cc4)cc3)c3cccc(C4CC4)c23)C1=O [Example 2-3, 4-chloro-N-[({2-[4-(5-cyclopropyl-2-methyl-1-oxo-1,2,3,4-tetrahydro-9H-beta-carbolin-9-yl)phenyl]ethyl}amino)carbonyl]benzenesulfonamide]
< 1	CN1CCc2c(n(-c3ccc(CCNC(=O)NS(=O)(=O)c4ccc(Cl)cc4)cc3)c3cc(C4CC4)ccc23)C1=O [Example 2-4, 4-chloro-N-[({2-[4-(7-cyclopropyl-2-methyl-1-oxo-1,2,3,4-tetrahydro-9H-beta-carbolin-9-yl)phenyl]ethyl}amino)carbonyl]benzenesulfonamide]
< 1	Cc1nnc(-c2ccc3c(c2)c2c(n3-c3ccc(CC4(NC(=O)NS(=O)(=O)c5ccc(Cl)cc5)CC4)cc3)C(=O)N(C)CC2)o1 [Example 3-1, sodium[(4-chlorophenyl)sulfonyl]{[(1-{4-[2-methyl-6-(5-methyl-1,3,4-oxadiazol-2-yl)-1-oxo-1,2,3,4-tetrahydro-9H-beta-carbolin-9-yl]benzyl}cyclopropyl)amino]carbonyl}azanide]
< 1	COC(=O)c1ccc2c(c1)c1c(n2-c2ccc(CC3(NC(=O)NS(=O)(=O)c4ccc(Cl)cc4)CC3)cc2)C(=O)N(C)CC1 [Example 3-2, methyl 9-[4-({1-[({[(4-chlorophenyl)sulfonyl]amino}carbonyl)amino]cyclopropyl}methyl)phenyl]-2-methyl-1-oxo-2,3,4,9-tetrahydro-1H-beta-carboline-6-carboxylate]
< 1	CN1CCc2c(n(-c3ccc(CC4(NC(=O)NS(=O)(=O)c5ccc(Cl)cc5)CC4)cc3)c3ccc(C(=O)O)cc23)C1=O [Example 3-3, 9-[4-({1-[({[(4-chlorophenyl)sulfonyl]amino}carbonyl)amino]cyclopropyl}methyl)phenyl]-2-methyl-1-oxo-2,3,4,9-tetrahydro-1H-beta-carboline-6-carboxylic acid]
< 1	CN1CCc2c(n(-c3ccc(CC4(NC(=O)NS(=O)(=O)c5ccc(Cl)cc5)CC4)cc3)c3ccc(-c4ccn[nH]4)cc23)C1=O [Example 3-4, 4-chloro-N-{[(1-{4-[2-methyl-1-oxo-6-(1H-pyrazol-5-yl)-1,2,3,4-tetrahydro-9H-beta-carbolin-9-yl]benzyl}cyclopropyl)amino]carbonyl}benzenesulfonamide]

Same assay, conditions: column marked X when IC50 > 5; read-out: IC50 (nm) X > 5

IC50 [nM]	Compound
> 5	CN1CCc2c(n(-c3ccc(CCNC(=O)NS(=O)(=O)c4ccc(Cl)cc4)cc3)c3cccc(S(C)(=O)=O)c23)C1=O [Example 1-33, 4-chloro-N-{[(2-{4-[2-methyl-5-(methylsulfonyl)-1-oxo-1,2,3,4-tetrahydro-9H-beta-carbolin-9-yl]phenyl}ethyl)amino]carbonyl}benzenesulfonamide]

Same assay, conditions: column marked X when IC50 between 1 and 5; read-out: IC50 (nm) 1 < X < 5

IC50 [nM]	Compound
1 to 5	CN1CCc2c(n(-c3ccc(CCNC(=O)NS(=O)(=O)c4ccc(Cl)cc4)cc3)c3cc(S(C)(=O)=O)ccc23)C1=O [Example 1-32, 4-chloro-N-{[(2-{4-[2-methyl-7-(methylsulfonyl)-1-oxo-1,2,3,4-tetrahydro-9H-beta-carbolin-9-yl]phenyl}ethyl)amino]carbonyl}benzenesulfonamide]

Same assay, conditions: radioligand displacement binding assay; read-out: IC50

IC50 [nM]	Compound
1 to 5	CN1CCc2c(n(-c3ccc(CCNC(=O)NS(=O)(=O)c4ccc(Cl)cc4)cc3)c3cc(S(C)(=O)=O)ccc23)C1=O [Example 1-32, 4-chloro-N-{[(2-{4-[2-methyl-7-(methylsulfonyl)-1-oxo-1,2,3,4-tetrahydro-9H-beta-carbolin-9-yl]phenyl}ethyl)amino]carbonyl}benzenesulfonamide]
> 5	CN1CCc2c(n(-c3ccc(CCNC(=O)NS(=O)(=O)c4ccc(Cl)cc4)cc3)c3cccc(S(C)(=O)=O)c23)C1=O [Example 1-33, 4-chloro-N-{[(2-{4-[2-methyl-5-(methylsulfonyl)-1-oxo-1,2,3,4-tetrahydro-9H-beta-carbolin-9-yl]phenyl}ethyl)amino]carbonyl}benzenesulfonamide]
